# Results as given in PubChem BioAssay AID1259407 (Chemical Carcinogenesis Research Information System (CCRIS), 2018).
# Calls of active or inactive are those of the source. How the calls were made is not given here.
# Tested on: CCRIS mutagenicity, Ames/micronucleus/aberration tests
# Assay: CCRIS mutagenicity studies
# [1] = Test System: AMES SALMONELLA TYPHIMURIUM, Strain/Indicator: TA98, Metabolic Activation: NONE, Method: STANDARD PLATE
# [2] = Test System: AMES SALMONELLA TYPHIMURIUM, Strain/Indicator: TA100, Metabolic Activation: NONE, Method: STANDARD PLATE
compound,measurement,setting,value
Nc1ccn([C@@H]2C=C(CO)[C@@H](O)[C@H]2O)c(=O)n1,mutagenic call,"Test System: AMES SALMONELLA TYPHIMURIUM, Strain/Indicator: TA98, Metabolic Activation: HAMSTER, LIVER, S-9, AROCLOR 1254 (10%), Method: STANDARD PLATE",inactive; negative
same,mutagenic call,[1],inactive; negative
same,mutagenic call,"Test System: AMES SALMONELLA TYPHIMURIUM, Strain/Indicator: TA98, Metabolic Activation: RAT, LIVER, S-9, AROCLOR 1254 (10%), Method: STANDARD PLATE",inactive; negative
same,mutagenic call,"Test System: AMES SALMONELLA TYPHIMURIUM, Strain/Indicator: TA100, Metabolic Activation: HAMSTER, LIVER, S-9, AROCLOR 1254 (10%), Method: STANDARD PLATE",inactive; negative
same,mutagenic call,[2],inactive; negative
same,mutagenic call,"Test System: AMES SALMONELLA TYPHIMURIUM, Strain/Indicator: TA100, Metabolic Activation: RAT, LIVER, S-9, AROCLOR 1254 (10%), Method: STANDARD PLATE",inactive; negative
same,mutagenic call,"Test System: AMES SALMONELLA TYPHIMURIUM, Strain/Indicator: TA1535, Metabolic Activation: HAMSTER, LIVER, S-9, AROCLOR 1254 (10%), Method: STANDARD PLATE",inactive; negative
same,mutagenic call,"Test System: AMES SALMONELLA TYPHIMURIUM, Strain/Indicator: TA1535, Metabolic Activation: NONE, Method: STANDARD PLATE",inactive; negative
same,mutagenic call,"Test System: AMES SALMONELLA TYPHIMURIUM, Strain/Indicator: TA1535, Metabolic Activation: RAT, LIVER, S-9, AROCLOR 1254 (10%), Method: STANDARD PLATE",inactive; negative
same,mutagenic call,"Test System: AMES SALMONELLA TYPHIMURIUM, Strain/Indicator: TA1537, Metabolic Activation: HAMSTER, LIVER, S-9, AROCLOR 1254 (10%), Method: STANDARD PLATE",inactive; negative
same,mutagenic call,"Test System: AMES SALMONELLA TYPHIMURIUM, Strain/Indicator: TA1537, Metabolic Activation: NONE, Method: STANDARD PLATE",inactive; negative
same,mutagenic call,"Test System: AMES SALMONELLA TYPHIMURIUM, Strain/Indicator: TA1537, Metabolic Activation: RAT, LIVER, S-9, AROCLOR 1254 (10%), Method: STANDARD PLATE",inactive; negative
same,mutagenic call,"Test System: AMES SALMONELLA TYPHIMURIUM, Strain/Indicator: TA1538, Metabolic Activation: HAMSTER, LIVER, S-9, AROCLOR 1254 (10%), Method: STANDARD PLATE",inactive; negative
same,mutagenic call,"Test System: AMES SALMONELLA TYPHIMURIUM, Strain/Indicator: TA1538, Metabolic Activation: NONE, Method: STANDARD PLATE",inactive; negative
same,mutagenic call,"Test System: AMES SALMONELLA TYPHIMURIUM, Strain/Indicator: TA1538, Metabolic Activation: RAT, LIVER, S-9, AROCLOR 1254 (10%), Method: STANDARD PLATE",inactive; negative
same,mutagenic call,"Test System: MOUSE LYMPHOMA, Strain/Indicator: L5178Y (TK+/TK-), Metabolic Activation: RAT, LIVER, S-9, AROCLOR 1254, Method: SUSPENSION/PLATE",active; positive. reevaluation of results: positive
same,mutagenic call,"Test System: Mouse lymphoma, Strain/Indicator: L5178Y (tk+/tk-), Metabolic Activation: None, Method: Suspension/plate",active; positive
O=C(NO)c1ccc(O)c(O)c1,mutagenic call,"Test System: AMES SALMONELLA TYPHIMURIUM, Strain/Indicator: TA97, Metabolic Activation: NONE, Method: STANDARD PLATE",inactive; negative
same,mutagenic call,"Test System: AMES SALMONELLA TYPHIMURIUM, Strain/Indicator: TA97, Metabolic Activation: RAT, LIVER, S-9, DELOR 103, Method: STANDARD PLATE",active; positive
same,mutagenic call,[1],inactive; negative
same,mutagenic call,"Test System: AMES SALMONELLA TYPHIMURIUM, Strain/Indicator: TA98, Metabolic Activation: RAT, LIVER, S-9, DELOR 103, Method: STANDARD PLATE",inactive; negative
same,mutagenic call,[2],inactive; negative
same,mutagenic call,"Test System: AMES SALMONELLA TYPHIMURIUM, Strain/Indicator: TA100, Metabolic Activation: RAT, LIVER, S-9, DELOR 103, Method: STANDARD PLATE",inactive; negative
same,mutagenic call,"Test System: AMES SALMONELLA TYPHIMURIUM, Strain/Indicator: TA102, Metabolic Activation: NONE, Method: STANDARD PLATE",inactive; negative
same,mutagenic call,"Test System: AMES SALMONELLA TYPHIMURIUM, Strain/Indicator: TA102, Metabolic Activation: RAT, LIVER, S-9, DELOR 103, Method: STANDARD PLATE",inactive; negative
Cc1cccc(O)c1C,mutagenic call,"Test System: AMES SALMONELLA TYPHIMURIUM, Strain/Indicator: TA98, Metabolic Activation: NONE, Method: PREINCUBATION",inactive; negative
same,mutagenic call,"Test System: AMES SALMONELLA TYPHIMURIUM, Strain/Indicator: TA98, Metabolic Activation: RAT LIVER S-9, PHENOBARBITAL AND BETA-NAPHTHOFLAVONE, Method: PREINCUBATION",inactive; negative
same,mutagenic call,"Test System: AMES SALMONELLA TYPHIMURIUM, Strain/Indicator: TA100, Metabolic Activation: NONE, Method: PREINCUBATION",inactive; negative
same,mutagenic call,"Test System: AMES SALMONELLA TYPHIMURIUM, Strain/Indicator: TA100, Metabolic Activation: RAT LIVER S-9, PHENOBARBITAL AND BETA-NAPHTHOFLAVONE, Method: PREINCUBATION",inactive; negative
same,mutagenic call,"Test System: AMES SALMONELLA TYPHIMURIUM, Strain/Indicator: TA1535, Metabolic Activation: NONE, Method: PREINCUBATION",inactive; negative
same,mutagenic call,"Test System: AMES SALMONELLA TYPHIMURIUM, Strain/Indicator: TA1535, Metabolic Activation: RAT LIVER S-9, PHENOBARBITAL AND BETA-NAPHTHOFLAVONE, Method: PREINCUBATION",inactive; negative
same,mutagenic call,"Test System: AMES SALMONELLA TYPHIMURIUM, Strain/Indicator: TA1537, Metabolic Activation: NONE, Method: PREINCUBATION",inactive; negative
same,mutagenic call,"Test System: AMES SALMONELLA TYPHIMURIUM, Strain/Indicator: TA1537, Metabolic Activation: RAT LIVER S-9, PHENOBARBITAL AND BETA-NAPHTHOFLAVONE, Method: PREINCUBATION",inactive; negative
same,mutagenic call,"Test System: AMES SALMONELLA TYPHIMURIUM, Strain/Indicator: TA1538, Metabolic Activation: NONE, Method: PREINCUBATION",inactive; negative
same,mutagenic call,"Test System: AMES SALMONELLA TYPHIMURIUM, Strain/Indicator: TA1538, Metabolic Activation: RAT LIVER S-9, PHENOBARBITAL AND BETA-NAPHTHOFLAVONE, Method: PREINCUBATION",inactive; negative
same,mutagenic call,"Test System: E.COLI, Strain/Indicator: WP2UVRA, Metabolic Activation: NONE, Method: PREINCUBATION",inactive; negative
same,mutagenic call,"Test System: E.COLI, Strain/Indicator: WP2UVRA, Metabolic Activation: RAT LIVER S-9, PHENOBARBITAL AND BETA-NAPHTHOFLAVONE, Method: PREINCUBATION",inactive; negative
